{"source": "paper PMC6060383", "about": "“Synthesis and pharmacological evaluation of novel isoquinoline N-sulphonylhydrazones designed as ROCK inhibitors” (Journal of Enzyme Inhibition and Medicinal Chemistry, 2018)", "key": {"[1]": {"assay": "Chemical stability study (pH 2.0 and pH 7.4 buffers)", "assay_type": "physicochemical", "settings": "37 °C", "procedure": "Two microliters ([…]) of a concentrated solution of the compound under examination (40 mM stock solution solubilized in DMSO) and 248 μL of acid (0.2 M potassium chloride and 0.2 M HCl; pH 2.0) or neutral (phosphate dibasic, pH 7.4) buffer were added to a 2 ml Eppendorf microtube. After vortexing, the mixture was placed in a water bath at 37 °C under vigorous stirring for 0, 30, 60, 120, and 240 min. After each reaction, 248 μL of basic buffer (phosphate buffer, pH 8.4) was added to neutralize the pH of the medium in the experiments using acidic buffer. The compound was extracted using 1 ml of acetonitrile followed by vigorous vortexing and freezing of the aqueous phase (−10 °C). The organic phase was separated, filtered, and analysed using an HPLC-PDA (acetonitrile/water […], 0.05% of TFA).\nDue to the possible chemical instability of the imine functional group present in the N-sulphonylhydrazone framework, the stability profiles of compounds 5b (LASSBio-2020) and 11 (LASSBio-2065) were determined. The study was conducted under two conditions, pH 2.0 and pH 7.4, to mimic the acidic stomach and the neutral plasma environments, respectively. The compounds were examined in the presence of acid (pH 2) and neutral (pH 7.4) buffers with stirring for 240 min at a controlled temperature (37 °C)."}, "MDA-MB 231 cells": {"test_system": "MDA-MB 231 cells", "assay": "Plasma membrane integrity assay (LDH)", "assay_type": "cell-based, human", "settings": "0.1 to 30 µM, 24 and 48 h", "procedure": "The human mammary gland/breast epithelial cell line MDA-MB 231 was obtained from the American Type Culture Collection (ATCC® HTB-26™) and this use was approved by the Ethics Committee for Animal Care and Use in Scientific Research from the Federal University of Rio de Janeiro. Cells were routinely grown in RPMI medium containing 10% foetal bovine serum (FBS), 1% L-glutamine and 1% penicillin-streptomycin, in a humidified 5% CO2 atmosphere at 37 °C. Cells were cultured up to 70–100% confluence and then some cultures were treated with the compounds at different concentrations for 24 or 48 h. All cell culture reagents were purchased from Invitrogen (São Paulo, Brazil).\nTo measure plasma membrane integrity, we assayed serum lactate dehydrogenase (LDH) levels and calculated percentages of LDH release to the medium. LDH activity was measured spectrophotometrically using a commercial kit (Doles, Goiás, Brazil). […] Then, 10 μl of NAD were added and absorbance intensities were measured in a microplate reader (FlexStation® 3 Reader, Molecular Devices) at 490 nm. The percentage of LDH release was calculated by ([LDH] sample ×100)/total [LDH]. […]\nWe also analysed the plasma membrane integrity by measuring the serum lactate dehydrogenase (LDH) levels in the culture medium to confirm the cell viability data. […]"}, "IKK-β": {"target": "T1, IKK-β (Homo sapiens, UniProt O14920)", "T1 sequence (O14920 1-756)": "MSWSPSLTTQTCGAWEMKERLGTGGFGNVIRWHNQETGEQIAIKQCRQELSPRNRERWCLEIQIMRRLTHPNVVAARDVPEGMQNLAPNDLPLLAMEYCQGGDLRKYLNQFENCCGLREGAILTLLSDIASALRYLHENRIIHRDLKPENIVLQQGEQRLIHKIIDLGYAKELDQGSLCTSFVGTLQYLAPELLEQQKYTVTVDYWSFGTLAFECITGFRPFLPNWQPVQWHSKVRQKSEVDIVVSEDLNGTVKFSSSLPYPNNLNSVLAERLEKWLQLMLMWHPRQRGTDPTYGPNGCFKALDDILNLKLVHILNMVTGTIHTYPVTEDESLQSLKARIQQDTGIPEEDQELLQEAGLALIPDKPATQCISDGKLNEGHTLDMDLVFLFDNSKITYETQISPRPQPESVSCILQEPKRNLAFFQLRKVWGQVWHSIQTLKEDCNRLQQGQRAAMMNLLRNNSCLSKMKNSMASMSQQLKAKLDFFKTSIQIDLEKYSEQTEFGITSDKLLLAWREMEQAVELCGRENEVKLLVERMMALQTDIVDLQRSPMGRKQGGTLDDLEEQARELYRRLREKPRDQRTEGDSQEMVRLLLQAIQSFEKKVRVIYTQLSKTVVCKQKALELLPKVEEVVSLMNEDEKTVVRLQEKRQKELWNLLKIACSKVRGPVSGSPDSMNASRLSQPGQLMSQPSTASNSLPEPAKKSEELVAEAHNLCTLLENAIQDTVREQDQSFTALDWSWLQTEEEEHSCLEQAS", "assay": "IKK-β inhibition screening", "assay_type": "biochemical", "settings": "screening concentration of 10 μM; data not shown", "description": "Furthermore, considering that 2 (LASSBio-1524) was used in the structural design of this new family of ROCK inhibitors we also investigated the ability of 5b (LASSBio-2020) and 11 (LASSBio-2065) to inhibit IKK-β."}}}
{"smiles": "O=S(=O)(N/N=C/c1ccccc1)c1cccc2cnccc12", "note": "[Compound 5b, (E)-N′-benzylideneisoquinoline-5-sulphonohydrazide]", "values": [{"measurement": "recovery percentage under acidic conditions", "setting": "[1]; pH 2, after 30 min of incubation", "value": 64, "unit": "%"}, {"measurement": "degradation in neutral medium", "setting": "[1]; pH 7.4, after 4 h", "value": "less than 20%"}, {"measurement": "LDH levels in culture medium / cytotoxicity in LDH assay (result in words)", "setting": "MDA-MB 231 cells", "value": "not altered"}, {"measurement": "IKK-β inhibition (result in words)", "setting": "IKK-β", "value": "none of these N-sulphonylhydrazone derivatives was able to inhibit IKK-β"}]}
